These results are taken from patent US20150099753A1, “FORM 5 POLYMORPH OF 7-(TERT-BUTYL-D9)-3-(2,5-DIFLUOROPHENYL)-6-((1-METHYL-1H-1,2,4-TRIAZOL-5-YL)METHOXY)-[1,2,4]TRIAZOLO[4,3-B]PYRIDAZINE” (Concert Pharmaceuticals Inc., priority 2012, published 2015).

Holding throughout (type): physicochemical
Data set [1] in a line: Dynamic Vapor Sorption (DVS) analysis. Conditions: DVS at 25° C., 0% RH to 90% RH cycles. On the procedure: Dynamic Vapor Sorption (DVS). DVS experiments were conducted on a Surface Measurement Systems DVS-HT at 25° C. The instrument was operated in step mode and the relative humidity was increased in 10% RH increments from 40% RH to 90% RH, then decreased from 90% RH to 0% RH, then increased from 0% RH to 90% RH, then decreased from 90% RH to 0% RH. An extra step at 75% RH was included in each cycle. The mass equilibrium criterion was set at 0.005% change in mass over time (dm/dt) prior to each humidity level. A minimum step time of 10 minutes and a maximum step time of 240 minutes were specified.

The nature of data set [2]: Physical (crystal form) stability on exposure to ambient conditions or relative humidity.
Data set [3] is described as follows: Crystal form stability when suspended and stirred in MeOH:water. The note with it: stirred for 72 hours at ambient temperature.
Data set [4] in a line: Relative thermodynamic stability of non-solvated forms (ripening studies). The note with it: temperatures from between 22° C. and 70° C. On the procedure: Excess Form 1 was combined with EtOH (1.8 mL) and the suspension was stirred at 57° C. for 6 hrs. The suspension was allowed to settle, and the saturated EtOH solution was isolated, and added into a 2-mL vial containing a mixture of Forms 1, Form 3, and Form 4 ([…] of each). The suspension was stirred at 57° C. for 24 hrs. The solid was isolated on a Büchner funnel and air-dried for ˜6 hrs.
Once the above preparation of Form 5 was obtained, additional Form 5 was produced as follows. Form 1 (100 mg) was weighed into a […] 4-mL vial containing a stir-bar. EtOH (4-mL) was added and the suspension was stirred for 12 hrs and at 25° C. The suspension was filtered and the filtrate (1.8 mL) was added into a 2-mail vial containing equivalent amounts (10 mg) of Forms 3, 4, and 5. An aliquot of the suspension was immediately sampled; the solid was isolated by filtration, and analyzed by PXRD to verify the crystal-form. The suspension was stirred at 25° C. for an additional 24 hrs. A second aliquot was sampled; the solid was isolated by filtration, and analyzed to verify the crystal-form. […]
Once Form 5 crystals were isolated they were used to prepare additional Form 5 as follows. […] The solid was isolated on a Büchner funnel and air-dried for ˜6 hrs and determined to be Form 5.

Consider `[2H]C([2H])([2H])C(c1cc2nnc(-c3cc(F)ccc3F)n2nc1OCc1ncnn1C)(C([2H])([2H])[2H])C([2H])([2H])[2H]` [Form 5, 7-(tert-Butyl-d9)-3-(2,5-difluorophenyl)-6-((1-methyl-1H-1,2,4-triazol-5-yl)methoxy)-[1,2,4]triazolo[4,3-b]pyridazine], for which, in data set [1], the “DVS weight gain (hygroscopicity; non-hygroscopic)” value is reported as < 0.4 % wt. gain. The physical stability result in data set [2] (exposed to 75% relative humidity for 5 days) is “physically stable”; in data set [2] (exposed to 97% RH for 5 days at room temperature), “physically unstable and partially converts to hydrated crystal Form 2”; in data set [2] (exposed to ambient conditions for at least 7 days) it was “physically stable”. Moreover, the “crystal form conversion in suspension” value in data set [3] (suspended in MeOH:water 95:5% volume) and in data set [3] (suspended in MeOH:water 98:2% volume) was “converts to Form 2” in each case. The “thermodynamic stability relative to other non-solvated forms (Forms 1, 3 and 4)” value in data set [4] is recorded as “more thermodynamically stable than any of the other non-solvated forms”.
